# Columns and labels:
# [1] = target: 78 proteins, including GPCR, ion channel, kinases, nuclear hormone receptors, and transporters; test: SAFETYscan E/IC50 ELECT off-target panel (whole panel); settings: read-out: IC50 in all SAFETYscan assays
# Experimental: (§1) The specificity of EDG-5506 for fast skeletal myosin over other, unrelated proteins was confirmed using two off-target binding and activity screens. […] A second off-target panel (SAFETYscan E/IC50 ELECT, Eurofins DiscoverX) tested in vitro enzyme activity against 78 proteins, including GPCR, ion channel, kinases, nuclear hormone receptors, and transporters. In all assays, the IC50 of EDG-5506 was more than 10 μM (Supplemental Data File 1).
# AURKB = target: T1, AURKB (Homo sapiens, UniProt Q96GD4); test: KINOMEscan scanEDGE; type: binding; settings: 20 uM
# T1 construct: purchased Eurofins DiscoverX (KINOMEscan; SAFETYscan E/IC50 ELECT)
# AKT1 = target: T2, AKT1 (Homo sapiens, UniProt P31749); test: KINOMEscan scanEDGE; type: binding; settings: 20 uM
# T2 construct: purchased Eurofins DiscoverX (KINOMEscan; SAFETYscan E/IC50 ELECT)
# Experimental: as §1
# EPHA2 = target: T3, EPHA2 (Homo sapiens, UniProt P29317); test: KINOMEscan scanEDGE; type: binding; settings: 20 uM
# T3 construct: purchased Eurofins DiscoverX (KINOMEscan; SAFETYscan E/IC50 ELECT)
# Experimental: as §1
# PCTK1 = target: T4, PCTK1 (Homo sapiens, UniProt Q00536); test: KINOMEscan scanEDGE; type: binding; settings: 20 uM
# T4 construct: purchased Eurofins DiscoverX (KINOMEscan; SAFETYscan E/IC50 ELECT)
# Experimental: as §1
# PIM1 = target: T5, PIM1 (Homo sapiens, UniProt P11309); test: KINOMEscan scanEDGE; type: binding; settings: 20 uM
# T5 construct: purchased Eurofins DiscoverX (KINOMEscan; SAFETYscan E/IC50 ELECT)
# Experimental: as §1
# KIT(V559D,T670I) = target: T6, KIT(V559D,T670I) (Homo sapiens, UniProt P10721, T670I/V559D); test: KINOMEscan scanEDGE; type: binding; settings: 20 uM
# T6 construct: purchased Eurofins DiscoverX (KINOMEscan; SAFETYscan E/IC50 ELECT)
# Experimental: as §1
# KIT = target: T7, KIT (Homo sapiens, UniProt P10721); test: KINOMEscan scanEDGE; type: binding; settings: 20 uM
# T7 construct: purchased Eurofins DiscoverX (KINOMEscan; SAFETYscan E/IC50 ELECT)
# Experimental: as §1
# DCAMKL1 = target: T8, DCAMKL1 (Homo sapiens, UniProt O15075); test: KINOMEscan scanEDGE; type: binding; settings: 20 uM
# T8 construct: purchased Eurofins DiscoverX (KINOMEscan; SAFETYscan E/IC50 ELECT)
# Experimental: as §1
# MLK1 = target: T9, MLK1 (Homo sapiens, UniProt P80192); test: KINOMEscan scanEDGE; type: binding; settings: 20 uM
# T9 construct: purchased Eurofins DiscoverX (KINOMEscan; SAFETYscan E/IC50 ELECT)
# Experimental: as §1
# PIM3 = target: T10, PIM3 (Homo sapiens, UniProt Q86V86); test: KINOMEscan scanEDGE; type: binding; settings: 20 uM
# T10 construct: purchased Eurofins DiscoverX (KINOMEscan; SAFETYscan E/IC50 ELECT)
# Experimental: as §1
# CSNK1G2 = target: T11, CSNK1G2 (Homo sapiens, UniProt P78368); test: KINOMEscan scanEDGE; type: binding; settings: 20 uM
# T11 construct: purchased Eurofins DiscoverX (KINOMEscan; SAFETYscan E/IC50 ELECT)
# Experimental: as §1
# [2] = target: T12, TYK2(JH1domain-catalytic) (Homo sapiens, UniProt P29597); test: KINOMEscan scanEDGE; type: binding; settings: 20 uM
# T12 construct: TYK2(JH1domain-catalytic); purchased Eurofins DiscoverX (KINOMEscan; SAFETYscan E/IC50 ELECT)
# Experimental: as §1
# JNK2 = target: T13, JNK2 (Homo sapiens, UniProt P45984); test: KINOMEscan scanEDGE; type: binding; settings: 20 uM
# T13 construct: purchased Eurofins DiscoverX (KINOMEscan; SAFETYscan E/IC50 ELECT)
# Experimental: as §1
# MKNK1 = target: T14, MKNK1 (Homo sapiens, UniProt Q9BUB5); test: KINOMEscan scanEDGE; type: binding; settings: 20 uM
# T14 construct: purchased Eurofins DiscoverX (KINOMEscan; SAFETYscan E/IC50 ELECT)
# Experimental: as §1
# PIK3C2B = target: T15, PIK3C2B (Homo sapiens, UniProt O00750); test: KINOMEscan scanEDGE; type: binding; settings: 20 uM
# T15 construct: purchased Eurofins DiscoverX (KINOMEscan; SAFETYscan E/IC50 ELECT)
# Experimental: as §1
# BTK = target: T16, BTK (Homo sapiens, UniProt Q06187); test: KINOMEscan scanEDGE; type: binding; settings: 20 uM
# T16 construct: purchased Eurofins DiscoverX (KINOMEscan; SAFETYscan E/IC50 ELECT)
# Experimental: as §1
# FGFR2 = target: T17, FGFR2 (Homo sapiens, UniProt P21802); test: KINOMEscan scanEDGE; type: binding; settings: 20 uM
# T17 construct: purchased Eurofins DiscoverX (KINOMEscan; SAFETYscan E/IC50 ELECT)
# Experimental: as §1
# VEGFR2 = target: T18, VEGFR2 (Homo sapiens, UniProt P35968); test: KINOMEscan scanEDGE; type: binding; settings: 20 uM
# T18 construct: purchased Eurofins DiscoverX (KINOMEscan; SAFETYscan E/IC50 ELECT)
# CSNK1D = target: T19, CSNK1D (Homo sapiens, UniProt P48730); test: KINOMEscan scanEDGE; type: binding; settings: 20 uM
# T19 construct: purchased Eurofins DiscoverX (KINOMEscan; SAFETYscan E/IC50 ELECT)
# CDK2 = target: T20, CDK2 (Homo sapiens, UniProt P24941); test: KINOMEscan scanEDGE; type: binding; settings: 20 uM
# T20 construct: purchased Eurofins DiscoverX (KINOMEscan; SAFETYscan E/IC50 ELECT)
# INSR = target: T21, INSR (Homo sapiens, UniProt P06213); test: KINOMEscan scanEDGE; type: binding; settings: 20 uM
# T21 construct: purchased Eurofins DiscoverX (KINOMEscan; SAFETYscan E/IC50 ELECT)
# RET = target: T22, RET (Homo sapiens, UniProt P07949); test: KINOMEscan scanEDGE; type: binding; settings: 20 uM
# T22 construct: purchased Eurofins DiscoverX (KINOMEscan; SAFETYscan E/IC50 ELECT)
# PAK1 = target: T23, PAK1 (Homo sapiens, UniProt Q13153); test: KINOMEscan scanEDGE; type: binding; settings: 20 uM
# T23 construct: purchased Eurofins DiscoverX (KINOMEscan; SAFETYscan E/IC50 ELECT)
# SNARK = target: T24, SNARK (Homo sapiens, UniProt Q9H093); test: KINOMEscan scanEDGE; type: binding; settings: 20 uM
# T24 construct: purchased Eurofins DiscoverX (KINOMEscan; SAFETYscan E/IC50 ELECT)
# JNK1 = target: T25, JNK1 (Homo sapiens, UniProt P45983); test: KINOMEscan scanEDGE; type: binding; settings: 20 uM
# T25 construct: purchased Eurofins DiscoverX (KINOMEscan; SAFETYscan E/IC50 ELECT)
# TGFBR1 = target: T26, TGFBR1 (Homo sapiens, UniProt P36897); test: KINOMEscan scanEDGE; type: binding; settings: 20 uM
# T26 construct: purchased Eurofins DiscoverX (KINOMEscan; SAFETYscan E/IC50 ELECT)
# IKK-beta = target: T27, IKK-beta (Homo sapiens, UniProt O14920); test: KINOMEscan scanEDGE; type: binding; settings: 20 uM
# T27 construct: purchased Eurofins DiscoverX (KINOMEscan; SAFETYscan E/IC50 ELECT)
# mdx mice = test: Evans blue dye muscle uptake; type: in vivo, mouse; settings: three-week treatment, nonexercised
# Experimental: Prior to in vivo assessments, mice were dosed PO after a 2-hour fast with 10 mL/Kg suspensions. Grip strength and rotarod assessments were performed masked, 4 hours after dosing using published protocols ([66], [67]). Grip strength was performed with a Columbus Instruments Rodent Force Meter. Forepaw strength represented the average of 5 trials with 30-second rest periods, normalized by BW. Rotarod endurance was performed with a Columbus Instruments RotaMax. Mice were placed on the device drum at 1 rpm, which accelerated 1 rpm every 3 seconds to 12 rpm and a maximal time of 500 seconds. This was repeated 3 times with a 3-minute rest and total time reported. Voluntary wheel running performance was assessed with a customized system. Timestamped RPMs were measured 24 hours per day by infrared sensors, and a custom software calculated distance. Whole-body EBD was visualized after intravenous administration ([35]). EBD in PBS at 10 mg/mL was sterile filtered, and 50 μL/10 g BW was injected via tail vein. After 24 hours, animals were sacrificed, skin was removed and fixed in 4% formalin for 24 hours, and photographed using a Leica/Lumix camera.
# T18 sequence (P35968 20-1356): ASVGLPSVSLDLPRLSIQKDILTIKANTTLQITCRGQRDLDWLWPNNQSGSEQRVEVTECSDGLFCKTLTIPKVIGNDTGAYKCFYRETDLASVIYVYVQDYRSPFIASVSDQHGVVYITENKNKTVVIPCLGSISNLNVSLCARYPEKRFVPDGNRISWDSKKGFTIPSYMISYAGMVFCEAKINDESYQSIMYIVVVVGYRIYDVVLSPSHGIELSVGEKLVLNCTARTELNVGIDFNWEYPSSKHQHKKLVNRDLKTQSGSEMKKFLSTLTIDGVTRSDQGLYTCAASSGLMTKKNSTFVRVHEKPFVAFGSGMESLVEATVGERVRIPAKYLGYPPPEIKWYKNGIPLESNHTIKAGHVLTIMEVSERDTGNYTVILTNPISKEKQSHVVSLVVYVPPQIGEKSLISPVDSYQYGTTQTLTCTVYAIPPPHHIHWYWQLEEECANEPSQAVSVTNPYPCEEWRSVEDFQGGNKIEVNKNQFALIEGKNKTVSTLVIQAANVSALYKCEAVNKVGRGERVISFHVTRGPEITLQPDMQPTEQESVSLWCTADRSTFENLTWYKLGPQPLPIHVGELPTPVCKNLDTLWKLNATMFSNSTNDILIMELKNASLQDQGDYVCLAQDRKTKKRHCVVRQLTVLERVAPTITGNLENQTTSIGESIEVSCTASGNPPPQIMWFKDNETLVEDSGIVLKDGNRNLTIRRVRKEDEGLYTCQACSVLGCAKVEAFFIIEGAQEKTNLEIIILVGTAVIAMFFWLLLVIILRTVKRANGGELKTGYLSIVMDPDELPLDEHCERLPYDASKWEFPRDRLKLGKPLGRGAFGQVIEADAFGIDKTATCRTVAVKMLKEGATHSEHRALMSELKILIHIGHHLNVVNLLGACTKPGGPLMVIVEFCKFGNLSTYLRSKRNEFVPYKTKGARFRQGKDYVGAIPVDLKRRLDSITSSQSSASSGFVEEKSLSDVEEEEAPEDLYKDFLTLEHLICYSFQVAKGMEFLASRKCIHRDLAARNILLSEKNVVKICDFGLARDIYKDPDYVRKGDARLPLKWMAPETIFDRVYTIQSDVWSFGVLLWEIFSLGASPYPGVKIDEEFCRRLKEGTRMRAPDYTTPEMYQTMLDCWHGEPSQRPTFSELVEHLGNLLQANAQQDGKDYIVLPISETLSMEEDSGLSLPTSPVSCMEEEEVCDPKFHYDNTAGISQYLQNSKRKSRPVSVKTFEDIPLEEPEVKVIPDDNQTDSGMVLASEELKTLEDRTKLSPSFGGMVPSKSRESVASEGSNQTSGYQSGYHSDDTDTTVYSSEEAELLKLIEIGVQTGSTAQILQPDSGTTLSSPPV
# T9 sequence (P80192 whole entry): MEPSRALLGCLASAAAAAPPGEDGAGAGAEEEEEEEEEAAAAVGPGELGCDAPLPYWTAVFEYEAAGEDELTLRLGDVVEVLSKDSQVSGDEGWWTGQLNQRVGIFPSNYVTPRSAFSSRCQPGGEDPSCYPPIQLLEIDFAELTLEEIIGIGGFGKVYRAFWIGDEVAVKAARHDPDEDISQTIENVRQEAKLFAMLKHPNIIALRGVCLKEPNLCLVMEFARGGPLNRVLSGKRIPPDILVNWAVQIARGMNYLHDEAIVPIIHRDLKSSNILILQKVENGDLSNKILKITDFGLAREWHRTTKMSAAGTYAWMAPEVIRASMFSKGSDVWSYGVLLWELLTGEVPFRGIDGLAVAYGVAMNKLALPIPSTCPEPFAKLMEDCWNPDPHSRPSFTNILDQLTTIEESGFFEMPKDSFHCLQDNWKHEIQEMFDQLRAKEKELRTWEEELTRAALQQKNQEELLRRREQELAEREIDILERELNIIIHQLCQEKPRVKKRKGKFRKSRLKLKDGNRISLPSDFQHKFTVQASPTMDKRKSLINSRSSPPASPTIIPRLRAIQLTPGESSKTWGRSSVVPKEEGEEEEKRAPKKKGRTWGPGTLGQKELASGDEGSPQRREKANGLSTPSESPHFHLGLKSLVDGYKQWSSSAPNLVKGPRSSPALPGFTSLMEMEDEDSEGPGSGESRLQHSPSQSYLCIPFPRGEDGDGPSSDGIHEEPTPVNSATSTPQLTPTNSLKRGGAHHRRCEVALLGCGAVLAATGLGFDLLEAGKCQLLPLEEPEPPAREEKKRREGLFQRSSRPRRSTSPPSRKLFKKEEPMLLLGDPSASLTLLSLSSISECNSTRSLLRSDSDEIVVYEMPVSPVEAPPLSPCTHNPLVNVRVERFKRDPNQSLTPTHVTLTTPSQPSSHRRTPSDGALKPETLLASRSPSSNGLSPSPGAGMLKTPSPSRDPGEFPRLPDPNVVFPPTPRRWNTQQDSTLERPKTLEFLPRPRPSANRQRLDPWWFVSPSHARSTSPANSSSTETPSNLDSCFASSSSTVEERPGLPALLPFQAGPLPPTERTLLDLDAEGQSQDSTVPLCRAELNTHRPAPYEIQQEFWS
# T27 sequence (O14920 whole entry): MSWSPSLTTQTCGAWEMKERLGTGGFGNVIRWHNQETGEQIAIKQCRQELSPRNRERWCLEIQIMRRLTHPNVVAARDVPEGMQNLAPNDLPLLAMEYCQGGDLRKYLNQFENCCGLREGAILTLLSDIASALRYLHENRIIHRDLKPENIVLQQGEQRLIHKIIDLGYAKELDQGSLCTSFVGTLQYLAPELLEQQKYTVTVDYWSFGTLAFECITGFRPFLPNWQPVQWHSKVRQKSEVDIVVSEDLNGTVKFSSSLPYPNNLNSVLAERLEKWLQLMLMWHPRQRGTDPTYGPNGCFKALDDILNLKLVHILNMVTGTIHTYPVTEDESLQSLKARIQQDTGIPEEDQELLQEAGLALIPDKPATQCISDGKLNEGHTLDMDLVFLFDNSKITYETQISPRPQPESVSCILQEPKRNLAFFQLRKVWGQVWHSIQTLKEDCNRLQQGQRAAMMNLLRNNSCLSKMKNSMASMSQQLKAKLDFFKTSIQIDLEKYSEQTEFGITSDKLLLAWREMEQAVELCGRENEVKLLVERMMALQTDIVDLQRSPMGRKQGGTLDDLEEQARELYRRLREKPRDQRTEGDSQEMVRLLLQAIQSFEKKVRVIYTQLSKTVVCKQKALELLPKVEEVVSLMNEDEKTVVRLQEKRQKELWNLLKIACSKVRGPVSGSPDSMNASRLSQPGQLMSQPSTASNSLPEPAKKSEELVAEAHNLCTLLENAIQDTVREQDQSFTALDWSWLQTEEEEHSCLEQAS
# T11 sequence (P78368 whole entry): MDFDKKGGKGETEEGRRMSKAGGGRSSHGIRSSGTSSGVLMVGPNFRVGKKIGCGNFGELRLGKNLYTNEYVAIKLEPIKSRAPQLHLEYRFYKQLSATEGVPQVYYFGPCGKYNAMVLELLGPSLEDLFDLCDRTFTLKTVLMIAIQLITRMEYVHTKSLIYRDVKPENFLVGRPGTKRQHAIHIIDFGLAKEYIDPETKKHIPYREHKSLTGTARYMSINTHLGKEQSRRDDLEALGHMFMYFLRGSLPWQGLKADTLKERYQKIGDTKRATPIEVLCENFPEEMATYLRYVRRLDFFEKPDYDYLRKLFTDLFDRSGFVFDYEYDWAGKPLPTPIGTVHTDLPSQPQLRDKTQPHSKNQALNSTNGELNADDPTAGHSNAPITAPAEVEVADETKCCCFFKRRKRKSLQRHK
# T26 sequence (P36897 34-503): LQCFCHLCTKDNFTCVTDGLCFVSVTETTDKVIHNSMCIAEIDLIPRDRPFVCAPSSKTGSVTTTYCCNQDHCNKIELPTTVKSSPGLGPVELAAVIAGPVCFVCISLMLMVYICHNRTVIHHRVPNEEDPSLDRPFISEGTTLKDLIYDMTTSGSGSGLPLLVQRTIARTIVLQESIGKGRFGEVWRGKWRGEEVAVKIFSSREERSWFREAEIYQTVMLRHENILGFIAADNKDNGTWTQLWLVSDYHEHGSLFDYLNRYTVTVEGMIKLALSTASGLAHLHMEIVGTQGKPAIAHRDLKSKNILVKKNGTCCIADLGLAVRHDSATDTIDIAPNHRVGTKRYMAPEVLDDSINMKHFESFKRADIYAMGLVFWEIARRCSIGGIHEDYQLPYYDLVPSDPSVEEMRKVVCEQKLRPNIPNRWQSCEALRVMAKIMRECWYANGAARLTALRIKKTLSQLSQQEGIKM
# T4 sequence (Q00536 whole entry): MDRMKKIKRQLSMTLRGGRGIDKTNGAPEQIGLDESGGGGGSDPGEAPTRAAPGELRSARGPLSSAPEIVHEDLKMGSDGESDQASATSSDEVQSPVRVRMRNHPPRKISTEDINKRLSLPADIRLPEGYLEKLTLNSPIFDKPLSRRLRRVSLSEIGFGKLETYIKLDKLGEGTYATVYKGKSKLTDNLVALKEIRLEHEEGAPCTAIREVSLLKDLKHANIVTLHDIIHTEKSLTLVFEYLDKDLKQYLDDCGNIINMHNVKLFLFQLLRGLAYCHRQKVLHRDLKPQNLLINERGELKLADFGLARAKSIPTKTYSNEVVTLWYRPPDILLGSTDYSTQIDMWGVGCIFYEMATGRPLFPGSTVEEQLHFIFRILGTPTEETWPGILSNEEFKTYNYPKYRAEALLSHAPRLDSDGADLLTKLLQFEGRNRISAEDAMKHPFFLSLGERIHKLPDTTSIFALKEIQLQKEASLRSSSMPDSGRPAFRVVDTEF
smiles,measurement,setting,value
O=c1ccc(-c2cnc(OCC(F)(F)F)nc2)nn1Cc1cncc(F)c1 [EDG-5506],IC50,[1],> 10 µM
same,"binding, % of control",AURKB,82 % of control
same,"binding, % of control",AKT1,100 % of control
same,"binding, % of control",EPHA2,58 % of control
same,"binding, % of control",PCTK1,100 % of control
same,"binding, % of control",PIM1,97 % of control
same,"binding, % of control","KIT(V559D,T670I)",100 % of control
same,"binding, % of control",KIT,98 % of control
same,"binding, % of control",DCAMKL1,76 % of control
same,"binding, % of control",MLK1,98 % of control
same,"binding, % of control",PIM3,99 % of control
same,"binding, % of control",CSNK1G2,96 % of control
same,"binding, % of control",[2],87 % of control
same,"binding, % of control",JNK2,96 % of control
same,"binding, % of control",MKNK1,85 % of control
same,"binding, % of control",PIK3C2B,100 % of control
same,"binding, % of control",BTK,93 % of control
same,"binding, % of control",FGFR2,84 % of control
same,"binding, % of control",VEGFR2,77 % of control
same,"binding, % of control",CSNK1D,94 % of control
same,"binding, % of control",CDK2,100 % of control
same,"binding, % of control",INSR,96 % of control
same,"binding, % of control",RET,52 % of control
same,"binding, % of control",PAK1,100 % of control
same,"binding, % of control",SNARK,100 % of control
same,"binding, % of control",JNK1,72 % of control
same,"binding, % of control",TGFBR1,100 % of control
same,"binding, % of control",IKK-beta,94 % of control
same,Evans blue dye-positive fibers,mdx mice,reduced blue fibers close to the level seen in WT mice

# Source: article PMC10178848, “Modulating fast skeletal muscle contraction protects skeletal muscle in animal models of Duchenne muscular dystrophy” (The Journal of Clinical Investigation, 2023)
